The text below walks through data of patent US10857128B2, “Methods and compositions for treating inflammatory diseases” (Helmholtz Zentrum München Deutsches Forschungszentrum für …, priority 2017, dated 2020).

Where two headings read alike, the source gives them in different places.

Common to all, as to format: cell-based
Test [1] concerns costimulatory molecules of LPS-stimulated human dendritic cells. Description: Costimulatory molecules on LPS-stimulated human monocyte-derived dendritic cells (flow cytometry). The note with it: Dendritic cell, 24 h, LPS 0.1 μg/ml, D-amino acid 10 μM, mean ± SD of three experiments, relative to LPS-induced expression. The method, then: Generation of human monocyte-derived dendritic cells. Peripheral venous blood was obtained from healthy volunteers aged between 20 and 50 years after informed consent. Individuals with allergic disease, acute infection or taking any medication 20 days prior to blood sampling or any history of smoking (personal interview) were excluded prior to blood sampling. All experiments were conducted according to the principles expressed in the Declaration of Helsinki.
(§1) Peripheral blood mononuclear cells (PBMC) were isolated from heparinized whole blood by density gradient centrifugation (2000 rpm, 22° C., 20 min) (Biocoll, Biochrom AG, Berlin, Germany). […] Purity and viability of DCs was assessed by flow cytometry (FIG. 9A-C).
Costimulatory molecules on human DCs. The following primary monoclonal antibodies were used: CD83 fluorescein isothiocyanate (FITC); CD1a phycoerythrin (PE); CD86-FITC; CD80-PE; CD14 allophycocyanine (APC); CD40-APC; CD3-peridinin chlorophyll protein (PerCP); HLA-DR-PerCP; mouse immunoglobulins G1 (IgG1) mouse immunoglobulins G1 (IgG1) κ were used as isotype controls using the corresponding fluorochromes (all purchased from BD Biosciences, Heidelberg, Germany). To account for donor dependent variability of DC surface markers, all data were normalized to the expression induced by LPS which was set to 100% after subtraction of background values (FACS Canto, FACS DIVA software, Version 5.0.3, BD Biosciences, Heidelberg, Germany). Murine DC subsets and CD4^+ T cells. Single cell suspensions of splenocytes were obtained by filtering spleens through a 70 μm strainer. Samples were stained with CD3-PB (1:200, Biolegend, San Diego, USA), CD4-APC-H7 (BD, 1:400), CD11c-APC-Cy7 (1:100), Mhc-II-Percp-Cy5 (1:100), CD11b-FITC (1:100), CD80-AF647, CD40-APC (1:100). For intracellular cytokines, total spleen cells were stimulated with anti-CD3 (4 μg/mL, BD Bioscience, Heidelberg, Germany) and anti-CD28 (30 ng/mL, BD Bioscience, Heidelberg, Germany) for 16 h. 1×10^6 of total lung cells were stimulated for 16 h with MACSiBead particles coated with anti-CD3 and anti-CD28 using the T cell activation/expansion kit (Miltenyi Biotec, Bergisch Gladbach, Germany) in TexMACS medium (Miltenyi Biotec) according to the manufactures recommendations. Prior to staining, cells were treated with monensin (0.7 μL/mL, BD Golgi Stop, BD Bioscience, Heidelberg, Germany) for 6 h at 37° C. and intracellularly stained for II-4-PE (1:100, eBioscience, Vienna, Austria according to the manufacturer's protocols. Intracellular staining for Foxp3 was performed by using the Foxp3/Transcription Factor Staining buffer set (eBiosciences, Vienna, Austria) according to the manufacturer's recommendations.
Bioassays for screening for immune modulatory activity in probiotic supernatants. Two biological assays based on down-modulation of costimulatory molecules on human DCs, and of CCL17-secretion by a human Hodgkin lymphoma T cell line (KM-H2) were set up. Human immature DCs were matured with 0.1 μg/mL lipopolysaccharide (LPS) from E. coli (Sigma-Aldrich, St. Louis, USA) in the presence or absence of 200 μL bacteria free supernatants for 24 h followed by flow cytometric analysis of costimulatory molecules.

In test [2] the test system is human LPS treated DCs. The test is described as follows: Cytokine secretion of human DCs (multiplex assay). To be noted: for IFN-g / IL-5 / IL-10 / IL-12: 200 μl supernatant or amino acid 10 μM, 14 h. The method, then: as §1
[…] For probiotic supernatants, blank CDM1 was used as medium control. […] IL-5, IFN-gamma, IL-12, and IL-10, were quantified by a multiplex assay (Milliplex Human Cytokine Immunoassay, Millipore GMbH Schalbach, Germany) as described by the manufacturer.

Test [3] deals with CCL17 secretion of human Hodgkin lymphoma KM-H2 cells. The test is described as follows: CCL17 secretion bioassay with KM-H2 cells (ELISA). The note with it: different concentrations, 24 h. The method, then:
Human T cell line KM-H2. The human Hodgkin lymphoma T cell line (KM-H2) was purchased from the Leibniz Institute DSMZ-German Collection of Microorganisms and Cell Cultures, Braunschweig, Germany. 3-5×10^6 KM-H2 cells were grown in 4 mL RPMI 1640 per well in 6-well-plates (Nunc, Wiesbaden, Germany). All eukaryotic cells were cultured in 5% CO2 at 37° C. (HeraCell 240 and Heraeus BDD 6220, Thermo Fisher Scientific, Waltham, USA). Viability of cells after treatment with bacterial supernatants was assessed by trypan blue, 7-AAD and CellTiter-Blue® staining. (FIG. 9A-C)
Quantification of CCL17 and cytokines in eukaryotic cell culture supernatants. CCL17 was quantified in cell culture supernatants of KM-H2 cells using ELISA reagent Quantikine CCL17/TARC, (R&D Systems, Minneapolis, USA) according to the manufacturer's instructions (ELISA reader MRXII, Thermo Fisher Scientifc, Waltham, USA).
Bioassays for screening for immune modulatory activity in probiotic supernatants. Two biological assays based on down-modulation of costimulatory molecules on human DCs, and of CCL17-secretion by a human Hodgkin lymphoma T cell line (KM-H2) were set up. […]
Similarly, 200 μL supernatants were added to 3-5×10^6 KM-H2 cells for 24 h. Supernatants were collected from KM-H2 by centrifugation and stored at −80° C. until quantification of CCL17. […]

[4] abbreviates: read-out: Percentage of CD40 expressing mature DCs.
[5] abbreviates: read-out: Percentage of CD80 expressing mature DCs.
The mark [6] stands for this setting: read-out: Percentage of CD83 expressing mature DCs.
The mark [7] stands for this setting: read-out: Percentage of CD86 expressing mature DCs.
Where [8] appears, read: read-out: Percentage of HLA-DR expressing mature DCs.

As for `C[C@@H](N)C(=O)O` [D-alanine], the activity at 10 µM in test [1] (setting [4]) was 102 ± 3.4%; in test [1] (setting [5]) it was 98.3 ± 2.6%; in test [1] (setting [6]) it was 97.7 ± 2.3%; in test [1] (setting [7]) it was 99.2 ± 2.1%; in test [1] (setting [8]), 98.1 ± 1.1%.
Taken in the same sequence, the figures for `N[C@H](Cc1c[nH]cn1)C(=O)O` [D-histidine] were 101 ± 3.2%, 102 ± 0.9%, 103.1 ± 0.3%, 102.5 ± 0.4% and 99.9 ± 0.9%.
On to `CC[C@@H](C)[C@@H](N)C(=O)O` [D-isoleucine], for which the activity at 10 µM was determined as 100 ± 2.4% in test [1] (setting [4]); 98.2 ± 1.5% in test [1] (setting [5]); 100 ± 1.1% in test [1] (setting [6]); 99.8 ± 1.2% in test [1] (setting [7]); 100.1 ± 0.3% in test [1] (setting [8]).
Taken in the same sequence, the figures for `CC(C)C[C@@H](N)C(=O)O` [D-leucine] were 100 ± 1.7%, 100 ± 1.6%, 97.1 ± 2.4%, 102 ± 1.3% and 98 ± 10%.
Taken in the same sequence, the figures for `CSCC[C@@H](N)C(=O)O` [D-methionine] were 102.7 ± 0.6%, 100.4 ± 0.2%, 102 ± 2.2%, 102 ± 2.5% and 98.9 ± 2%.
On the same counts, the results for `N[C@H](Cc1ccccc1)C(=O)O` [D-phenylalanine] are 100 ± 2.7%, 92.4 ± 3.5%, 99.6 ± 2%, 99.2 ± 3.3% and 98 ± 3.2%.
With `O=C(O)[C@H]1CCCN1` [D-proline], the activity at 10 µM was determined as 99.2 ± 1.3% in test [1] (setting [4]); 100.3 ± 0.1% in test [1] (setting [5]); 100.9 ± 0.4% in test [1] (setting [6]); 101 ± 1.9% in test [1] (setting [7]); 98.4 ± 2.6% in test [1] (setting [8]). The “Ratio IL-5/IFN-g” value is recorded as 0.030 in test [2] (with LPS 0.1 μg/ml) and 0.171 in test [2] (without LPS). For the same molecule, the “Ratio IL-10/IL-12” value is recorded as 0.002 in test [2] (with LPS 0.1 μg/ml) and 0.065 in test [2] (without LPS). The results for the IFN-g in test [2] (with LPS 0.1 μg/ml) and in test [2] (without LPS) were 2295.40 pg/mL and 92.60 pg/mL, respectively. In addition, the IL-5 is 69.10 pg/mL in test [2] (with LPS 0.1 μg/ml) and 15.80 pg/mL in test [2] (without LPS). In addition, the IL-10 in test [2] (with LPS 0.1 μg/ml) was determined as 4.00 pg/mL; in test [2] (without LPS) it was 5.90 pg/mL. The IL-12 in test [2] (with LPS 0.1 μg/ml) is 1911.90 pg/mL; in test [2] (without LPS), 90.60 pg/mL.
Take `N[C@H](CO)C(=O)O` [D-serine]: the activity at 10 µM in test [1] (setting [4]) amounted to 101 ± 1.1%; in test [1] (setting [5]), 100 ± 2.8%; in test [1] (setting [6]), 100.8 ± 0.3%; in test [1] (setting [7]) it was 101 ± 2.8%; in test [1] (setting [8]), 98.6 ± 0.6%.
For `C[C@H](O)[C@@H](N)C(=O)O` [D-threonine], the activity at 10 µM in test [1] (setting [4]) was found to be 101 ± 1.5%; in test [1] (setting [5]), 100.8 ± 0.4%; in test [1] (setting [6]) it was 102.6 ± 0.5%; in test [1] (setting [7]), 102.1 ± 0.7%; in test [1] (setting [8]) it was 97.1 ± 3.9%.
On the same counts, the results for `N[C@H](Cc1ccc(O)cc1)C(=O)O` [D-tyrosin] are 100 ± 1.3%, 101.6 ± 0.4%, 101.6 ± 0.6%, 102.2 ± 0.9% and 98.4 ± 2.4%.
Taken in the same sequence, the figures for `CC(C)[C@@H](N)C(=O)O` [D-valine] were 101 ± 2.4%, 99.6 ± 2%, 102 ± 1.2%, 101.8 ± 0.9% and 100 ± 1%.
Regarding `O=C(O)[C@@H]1CCCN1` [L-Pro, L-Prolin], in test [2] (with LPS 0.1 μg/ml), the “Ratio IL-5/IFN-g” value was 0.027, the “Ratio IL-10/IL-12” value was 0.003, the IFN-g was 2133.90 pg/mL and the IL-5 is 57.70 pg/mL. Besides, in test [2] (with LPS 0.1 μg/ml), the IL-10 is 6.00 pg/mL and the IL-12 came to 1938.00 pg/mL. For the same molecule, in test [2] (without LPS), the “Ratio IL-5/IFN-g” value is on record as 0.166, the IFN-g came to 88.90 pg/mL, the IL-5 was found to be 14.80 pg/mL and the IL-12 came to 99.80 pg/mL.
With `N[C@@H](Cc1c[nH]c2ccccc12)C(=O)O` [L-Trp, L-Tryptophan], in test [2] (with LPS 0.1 μg/ml), the “Ratio IL-5/IFN-g” value was 0.030, the “Ratio IL-10/IL-12” value is given as 0.002, the IFN-g came to 2031.50 pg/mL and the IL-5 turned out to be 61.40 pg/mL. In test [2] (with LPS 0.1 μg/ml), this molecule had an IL-10 of 4.90 pg/mL and an IL-12 of 1993.00 pg/mL. Moreover, in test [2] (without LPS), the “Ratio IL-5/IFN-g” value was 0.267, the “Ratio IL-10/IL-12” value was found to be 0.065, the IFN-g was 45.00 pg/mL and the IL-5 is 12.00 pg/mL. Further, in test [2] (without LPS), the IL-10 was 5.70 pg/mL and the IL-12 was 88.30 pg/mL. The “immune activity of synthetic tryptophan isomers in the CCL17 bioassay” value in test [3] was “inactive”.
